Test results from ChEMBL document CHEMBL4742387, “Condensed tricyclic compounds as protein kinase inhibitors” (2018).
pEC50, pIC50: −log10 of the molar value.

Columns and labels:
SW-620 [1] = assay: Antiproliferative activity against human SW-620 cells assessed as reduction in cell proliferation by CellTiter-Glo luminescent cell viability assay; assay type: functional
[2] = molecular target: Cyclin-C/Cyclin-dependent kinase 19 (Homo sapiens, UniProt Q9BWU1); assay: Inhibition of kinase tracer 236 binding to full-length His-tagged recombinant human CDK19/cyclin C incubated for 60 mins by FRET based LanthaScreen Eu-Kinase binding assay; assay type: protein-complex assay
Chain of Cyclin-C/Cyclin-dependent kinase 19 (Q9BWU1 whole entry): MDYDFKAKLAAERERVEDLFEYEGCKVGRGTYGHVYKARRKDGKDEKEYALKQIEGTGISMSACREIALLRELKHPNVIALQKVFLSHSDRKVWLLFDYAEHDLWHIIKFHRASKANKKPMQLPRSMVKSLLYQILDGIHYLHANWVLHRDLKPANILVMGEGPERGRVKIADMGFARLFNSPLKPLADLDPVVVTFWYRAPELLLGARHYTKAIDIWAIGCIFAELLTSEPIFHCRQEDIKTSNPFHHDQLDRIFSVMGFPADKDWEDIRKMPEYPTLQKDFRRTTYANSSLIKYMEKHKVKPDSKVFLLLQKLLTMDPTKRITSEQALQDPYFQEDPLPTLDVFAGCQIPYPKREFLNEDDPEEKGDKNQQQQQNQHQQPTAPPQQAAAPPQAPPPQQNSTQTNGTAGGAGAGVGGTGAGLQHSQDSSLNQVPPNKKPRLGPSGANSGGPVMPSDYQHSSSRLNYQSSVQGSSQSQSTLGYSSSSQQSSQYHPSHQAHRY
Chain of Cyclin-C/Cyclin-dependent kinase 19 (P24863 whole entry, further chain): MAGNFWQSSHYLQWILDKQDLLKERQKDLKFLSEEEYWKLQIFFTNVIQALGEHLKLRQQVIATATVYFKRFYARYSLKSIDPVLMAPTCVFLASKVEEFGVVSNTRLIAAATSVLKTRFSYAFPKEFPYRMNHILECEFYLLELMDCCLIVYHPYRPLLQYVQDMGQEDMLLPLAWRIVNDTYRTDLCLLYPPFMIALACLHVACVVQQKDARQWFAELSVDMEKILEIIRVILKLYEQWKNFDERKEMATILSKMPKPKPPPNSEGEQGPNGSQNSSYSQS

MOLM-13 = assay: Antiproliferative activity against human MOLM-13 cells assessed as reduction in cell proliferation by CellTiter-Glo luminescent cell viability assay; assay type: functional
MV4-11 = assay: Antiproliferative activity against human MV4-11 cells assessed as reduction in cell proliferation by CellTiter-Glo luminescent cell viability assay; assay type: functional
MDA-MB-231 = assay: Antiproliferative activity against human MDA-MB-231 cells assessed as reduction in cell proliferation by CellTiter-Glo luminescent cell viability assay; assay type: functional
[3] = molecular target: T1, Serine/threonine-protein kinase haspin (Homo sapiens) (UniProt Q8TF76); assay: Inhibition of haspin in synchronized human SW620 cells assessed as reduction in IFNgamma-induced H3T3 phosphorylation pre-incubated for 1 hr before IFNgamma stimulation for 3 hrs by Western blot analysis; assay type: cell-based; conditions: SW-620, time 4.0 hrs
T1 sequence (whole entry): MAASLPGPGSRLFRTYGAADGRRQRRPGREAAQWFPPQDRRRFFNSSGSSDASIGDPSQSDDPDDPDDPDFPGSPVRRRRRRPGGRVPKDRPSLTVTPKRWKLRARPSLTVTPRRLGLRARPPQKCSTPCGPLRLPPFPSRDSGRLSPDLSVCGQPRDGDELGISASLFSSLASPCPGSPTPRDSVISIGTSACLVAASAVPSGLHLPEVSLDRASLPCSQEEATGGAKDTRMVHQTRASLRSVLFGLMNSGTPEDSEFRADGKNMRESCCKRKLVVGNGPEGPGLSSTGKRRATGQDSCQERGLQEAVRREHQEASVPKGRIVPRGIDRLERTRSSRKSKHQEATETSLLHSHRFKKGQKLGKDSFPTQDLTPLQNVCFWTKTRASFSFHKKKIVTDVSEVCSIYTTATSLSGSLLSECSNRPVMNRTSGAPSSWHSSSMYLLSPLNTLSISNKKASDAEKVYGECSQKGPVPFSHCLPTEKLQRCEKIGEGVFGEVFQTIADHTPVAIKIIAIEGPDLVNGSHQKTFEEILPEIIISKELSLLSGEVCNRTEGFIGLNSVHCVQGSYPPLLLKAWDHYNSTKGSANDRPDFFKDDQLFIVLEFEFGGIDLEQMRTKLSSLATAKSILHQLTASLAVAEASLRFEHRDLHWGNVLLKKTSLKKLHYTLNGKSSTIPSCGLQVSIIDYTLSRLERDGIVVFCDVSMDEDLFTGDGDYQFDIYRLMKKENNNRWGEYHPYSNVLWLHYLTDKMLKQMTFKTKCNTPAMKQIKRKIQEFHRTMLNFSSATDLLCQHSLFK

[4] = molecular target: T1, Serine/threonine-protein kinase haspin (Homo sapiens); assay: Inhibition of haspin in human SW620 cells assessed as reduction in IFNgamma-induced H3T3 phosphorylation pre-incubated for 1 hr before IFNgamma stimulation for 3 hrs by Western blot analysis; assay type: cell-based; conditions: SW-620, time 4.0 hrs
[5] = molecular target: T2, Cyclin-dependent kinase 8 (Homo sapiens, UniProt P49336); assay: Inhibition of CDK8 in human SW-620 cells assessed as reduction in IFNgamma-induced STAT1 S727 phosphorylation pre-incubated for 1 hr before IFNgamma stimulation for 3 hrs by Western blot analysis; assay type: cell-based; conditions: time 4.0 hrs
T2 sequence (P49336 whole entry): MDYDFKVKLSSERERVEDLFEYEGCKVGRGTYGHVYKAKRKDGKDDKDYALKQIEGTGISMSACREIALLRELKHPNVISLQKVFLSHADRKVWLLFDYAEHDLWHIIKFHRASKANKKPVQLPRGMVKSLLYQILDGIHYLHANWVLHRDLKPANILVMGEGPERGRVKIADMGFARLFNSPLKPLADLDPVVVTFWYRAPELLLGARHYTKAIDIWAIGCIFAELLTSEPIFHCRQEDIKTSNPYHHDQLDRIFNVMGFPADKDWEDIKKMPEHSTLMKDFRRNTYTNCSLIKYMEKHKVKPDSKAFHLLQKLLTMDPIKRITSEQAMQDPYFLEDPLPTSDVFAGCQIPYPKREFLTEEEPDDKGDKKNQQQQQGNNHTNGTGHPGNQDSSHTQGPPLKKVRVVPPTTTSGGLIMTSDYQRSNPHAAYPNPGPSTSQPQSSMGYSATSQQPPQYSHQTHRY

[6] = molecular target: T2, Cyclin-dependent kinase 8; assay: Inhibition of CDK8 in human SW-620 cells assessed as reduction in STAT1 S727 phosphorylation pre-incubated for 1 hr before IFNgamma stimulation for 3 hrs by Western blot analysis; assay type: cell-based; conditions: time 4.0 hrs
CDK8/Cyclin C = CDK8/Cyclin C (Homo sapiens, UniProt P49336); assay: Inhibition of kinase tracer 236 binding to full-length His-tagged recombinant human CDK8/cyclin C incubated for 60 mins by FRET based LanthaScreen Eu-Kinase binding assay; assay type: protein-complex assay
Chain of CDK8/Cyclin C (P49336 whole entry): as above
Chain of CDK8/Cyclin C (P24863 whole entry, further chain): as the sequence (P24863 whole entry, further chain) above

SW-620 [7] = assay: Inhibition of colony formation of human SW-620 cells incubated for 11 days (Every 3 days medium is changed by fresh medium and compounds were added freshly) by crystal violet staining based assay; assay type: functional, cell-based
HCT-116 = assay: Antiproliferative activity against human HCT-116 cells assessed as reduction in cell proliferation by CellTiter-Glo luminescent cell viability assay; assay type: functional
[8] = molecular target: T3, Serine/threonine-protein kinase haspin (Homo sapiens, UniProt Q8TF76); assay: Inhibition of GST-tagged recombinant human haspin kinase domain incubated for 60 mins by ADP-Glo luminescent kinase assay
T3 sequence (Q8TF76 whole entry): T1 sequence (whole entry)

| GI50 (SW-620 [1]; Homo sapiens, SW-620) [µM] | GI50 (MOLM-13; Homo sapiens, MOLM-13) [µM] | GI50 (MV4-11; Homo sapiens, MV4-11) [µM] | GI50 (MDA-MB-231; Homo sapiens, MDA-MB-231) [µM] | pIC50 (CDK8/Cyclin C) | Compound | further results |
| --- | --- | --- | --- | --- | --- | --- |
| 1 | 1 | < 1 | 10 | 8.07 | NC(=O)c1cc2c([nH]1)-c1ccncc1O[C@H]2C1CCCCC1 | pIC50 [2]: 8.15; INH [3]: < 0.5 µM; INH [4]: < 500 nM; INH [5]: < 500 nM; INH [6]: < 500 nM |
| 1 | 1 | < 1 | 1 | – | CC1(C)Oc2cnccc2-c2[nH]c(C(N)=O)c(C3CC3)c21 | INH [6]: < 500 nM |
| 10 | 1 | 1 | 10 | – | NC(=O)c1cc2c([nH]1)-c1ccncc1OC21CCN(CC(F)(F)F)CC1 | – |
| 10 | < 1 | < 1 | 10 | 9.39 | CCn1c(C(N)=O)cc2c1-c1ccncc1OC2C1CCCCC1 (stereo in doubt; form 1) | pIC50 [2]: 8.85; pIC50 [8]: 7.02 |
| 1 | < 1 | < 1 | 1 | – | NC(=O)c1cc2c([nH]1)-c1ccncc1OC21CCN(CCc2ccccc2)CC1 | – |
| – | – | – | – | 8.35 | NC(=O)c1cc2c([nH]1)-c1ccncc1OC2C1CCOCC1 (stereo in doubt; form 2) | GI50 (SW-620 [1]): 10 µM; pIC50 [2]: 7.85; GI50 (MV4-11): 1 µM; GI50 (MDA-MB-231): 10 µM; pIC50 [8]: 6.39 |
| – | – | – | – | > 8.85 | CCn1c(C(N)=O)cc2c1-c1ccncc1OC2C1CCOCC1 (stereo not given) | pIC50 [8]: 6.45 |
| 1 | < 1 | < 1 | 1 | – | Cn1c(C(N)=O)cc2c1-c1ccncc1OC21CCOCC1 | – |
| – | – | – | – | 8.87 | CCn1c(C(N)=O)cc2c1-c1ccncc1OC2C1CCCCC1 (stereo in doubt; form 2) [listing 2 of 2 here] | GI50 (MOLM-13): 1 µM; pIC50 [8]: 6.28 |

Continued, compound first:

| Compound | GI50 (SW-620 [1]; Homo sapiens, SW-620) [µM] | GI50 (MOLM-13; Homo sapiens, MOLM-13) [µM] | GI50 (MV4-11; Homo sapiens, MV4-11) [µM] | GI50 (MDA-MB-231; Homo sapiens, MDA-MB-231) [µM] | pIC50 (CDK8/Cyclin C) | further results |
| --- | --- | --- | --- | --- | --- | --- |
| COc1ccccc1-c1c2c(n(CCF)c1C(N)=O)-c1ccncc1OC2(C)C | – | – | – | – | – | pEC50 (SW-620 [7]): 5.27; INH [3]: 0.5 µM; INH [5]: < 500 nM |
| CCn1c(C(N)=O)c(-c2cccc(OC)c2)c2c1-c1ccncc1OC2(C)C | 10 | 1 | < 1 | 10 | – | – |
| COc1ccc(S(=O)(=O)Nc2cccnc2Nc2ccc(O)cc2)cc1 [ABT-751] | 0.5 | – | – | – | – | – |
| COCCn1c(C(N)=O)cc2c1-c1ccncc1OC21CCOCC1 | 10 | 10 | 1 | 10 | – | – |
| CC(=O)O[C@H]1C(=O)[C@@]2(C)[C@H]([C@H](OC(=O)c3ccccc3)[C@]3(O)C[C@H](OC(=O)[C@H](O)[C@@H](NC(=O)c4ccccc4)c4ccccc4)C(C)=C1C3(C)C)[C@]1(OC(C)=O)CO[C@@H]1C[C@@H]2O [PACLITAXEL] | 0.005 | – | – | – | – | GI50 (HCT-116): 0.005 µM |
| CCn1c(C(N)=O)cc2c1-c1ccncc1OC21CCCCC1 | – | – | – | – | 6.52 | – |
| CCn1c(C(N)=O)cc2c1-c1ccncc1OC2C1CCCCC1 (stereo in doubt; form 2) [listing 1 of 2 here] | – | – | – | – | – | INH [4]: < 500 nM; INH [6]: < 500 nM |
| CCn1c(C(N)=O)c(Cl)c2c1-c1ccncc1OC21CCCCC1 | – | – | – | – | > 8.85 | – |
| NC(=O)c1cc2c([nH]1)-c1ccncc1OC2C1CCOCC1 (stereo in doubt; form 1) | – | – | – | – | – | INH [3]: 0.5 µM; INH [5]: 500 nM |
| Cn1c(C(N)=O)cc2c1-c1ccncc1OC21CCCCC1 | 1 | < 1 | < 1 | 1 | – | INH [6]: < 500 nM |
